Assay results: patent US20230172209A1, “FUNGICIDAL COMPOSITIONS” (SYNGENTA CROP PROTECTION AG, priority 2020, published 2023)

Key:
Assay type in all cases: cell-based
Corynespora cassiicola = Corynespora cassiicola growth inhibition in liquid culture (microtiter plate, photometric); conditions: for Observed Activity (%): A-1.3 0 ppm
Description: A synergistic effect exists whenever the action of an active ingredient combination is greater than the sum of the actions of the individual components. The action to be expected E for a given active ingredient combination obeys the so-called COLBY formula and can be calculated as follows (COLBY, S. R. “Calculating synergistic and antagonistic responses of herbicide combination”. Weeds, Vol. 15, pages 20-22; 1967): • ppm=milligrams of active ingredient (=a.i.) per liter of spray mixture • X=% action by active ingredient A) using p ppm of active ingredient • Y=% action by active ingredient B) using q ppm of active ingredient. According to COLBY, the expected (additive) action of active ingredients A)+B) using p+q ppm of active ingredient is: If the action actually observed (O) is greater than the expected action (E), then the action of the combination is super-additive, i.e. there is a synergistic effect. In mathematical terms, synergism corresponds to a positive value for the difference of (O-E). In the case of purely complementary addition of activities (expected activity), said difference (O-E) is zero. A negative value of said difference (O-E) signals a loss of activity compared to the expected activity. Corynespora cassiicola (Target Spot of Soybean, Target Leaf Spot of Tomato): Conidia of the fungus from cryogenic storage were directly mixed into nutrient broth (PDB potato dextrose broth). A DMSO solution of the test compounds was placed into a microtiter plate (96-well format) and the nutrient broth containing the fungal spores was added to it. The test plates were incubated at 24° C. and the inhibition of growth was determined photometrically after 3-4 days at 620 nm. Rates and results are set out in the following tables: […]

Septoria glycines = Septoria glycines growth inhibition in liquid culture (microtiter plate, visual)
Description: A synergistic effect exists whenever the action of an active ingredient combination is greater than the sum of the actions of the individual components. The action to be expected E for a given active ingredient combination obeys the so-called COLBY formula and can be calculated as follows (COLBY, S. R. “Calculating synergistic and antagonistic responses of herbicide combination”. Weeds, Vol. 15, pages 20-22; 1967): • ppm=milligrams of active ingredient (=a.i.) per liter of spray mixture • X=% action by active ingredient A) using p ppm of active ingredient • Y=% action by active ingredient B) using q ppm of active ingredient. According to COLBY, the expected (additive) action of active ingredients A)+B) using p+q ppm of active ingredient is: If the action actually observed (O) is greater than the expected action (E), then the action of the combination is super-additive, i.e. there is a synergistic effect. In mathematical terms, synergism corresponds to a positive value for the difference of (O-E). In the case of purely complementary addition of activities (expected activity), said difference (O-E) is zero. A negative value of said difference (O-E) signals a loss of activity compared to the expected activity. Septoria glycines (Brown Spot): Conidia of the fungus from cryogenic storage were directly mixed into nutrient broth ([…] potato dextrose broth). A DMSO solution of the test compounds was placed into a microtiter plate (96-well format) and the nutrient broth containing the fungal spores was added to it. The test plates were incubated at 24° C. and the inhibition of growth was determined visually after 72 hrs.

[1] = system: Mycosphaerella arachidis Syn. Cercospora arachidicola; test: Mycosphaerella arachidis growth inhibition in liquid culture (microtiter plate, photometric); conditions: for Observed Activity (%): A-1.3 0 ppm
Description: A synergistic effect exists whenever the action of an active ingredient combination is greater than the sum of the actions of the individual components. The action to be expected E for a given active ingredient combination obeys the so-called COLBY formula and can be calculated as follows (COLBY, S. R. “Calculating synergistic and antagonistic responses of herbicide combination”. Weeds, Vol. 15, pages 20-22; 1967): • ppm=milligrams of active ingredient (=a.i.) per liter of spray mixture • X=% action by active ingredient A) using p ppm of active ingredient • Y=% action by active ingredient B) using q ppm of active ingredient. According to COLBY, the expected (additive) action of active ingredients A)+B) using p+q ppm of active ingredient is: If the action actually observed (O) is greater than the expected action (E), then the action of the combination is super-additive, i.e. there is a synergistic effect. In mathematical terms, synergism corresponds to a positive value for the difference of (O-E). In the case of purely complementary addition of activities (expected activity), said difference (O-E) is zero. A negative value of said difference (O-E) signals a loss of activity compared to the expected activity. Mycosphaerella arachidis Syn. Cercospora arachidicola (Brown Leaf Spot of Peanut): Conidia of the fungus from cryogenic storage were directly mixed into nutrient broth (PDB potato dextrose broth). A DMSO solution of the test compounds was placed into a microtiter plate (96-well format) and the nutrient broth containing the fungal spores was added to it. The test plates were incubated at 24° C. and the inhibition of growth was determined photometrically after 5-6 days at 620 nm.

Septoria tritici = Septoria tritici growth inhibition in liquid culture (microtiter plate, photometric)
Description: A synergistic effect exists whenever the action of an active ingredient combination is greater than the sum of the actions of the individual components. The action to be expected E for a given active ingredient combination obeys the so-called COLBY formula and can be calculated as follows (COLBY, S. R. “Calculating synergistic and antagonistic responses of herbicide combination”. Weeds, Vol. 15, pages 20-22; 1967): • ppm=milligrams of active ingredient (=a.i.) per liter of spray mixture • X=% action by active ingredient A) using p ppm of active ingredient • Y=% action by active ingredient B) using q ppm of active ingredient. According to COLBY, the expected (additive) action of active ingredients A)+B) using p+q ppm of active ingredient is: If the action actually observed (O) is greater than the expected action (E), then the action of the combination is super-additive, i.e. there is a synergistic effect. In mathematical terms, synergism corresponds to a positive value for the difference of (O-E). In the case of purely complementary addition of activities (expected activity), said difference (O-E) is zero. A negative value of said difference (O-E) signals a loss of activity compared to the expected activity. Septoria tritici (Leaf Blotch): Conidia of the fungus from cryogenic storage were directly mixed into nutrient broth (PDB potato dextrose broth). A DMSO solution of the test compounds was placed into a microtiter plate (96-well format) and the nutrient broth containing the fungal spores was added to it. The test plates were incubated at 24° C. and the inhibition of growth was determined photometrically after 72 hrs.

For `O=C(NC1CCC1c1ccc(Cl)cc1Cl)c1cccnc1C(F)(F)F` (stereo in doubt) [Cyclobutrifluram], the “Observed Activity (%)” value (Corynespora cassiicola; Cyclobutrifluram 0.0125 ppm) was 0%, the “Observed Activity (%)” value (Corynespora cassiicola; Cyclobutrifluram 0.025 ppm) was 20% and the “Observed Activity (%)” value (Corynespora cassiicola; Cyclobutrifluram 0.05 ppm) was 50%. For the same compound, the “Observed Activity (%)” value (Septoria glycines; Table 13: A-1.3 0 ppm, Cyclobutrifluram 0.05 ppm) was 70%, the “Observed Activity (%)” value (Septoria glycines; Table 13: A-1.3 0 ppm, Cyclobutrifluram 0.1 ppm) was 90% and the “Observed Activity (%)” value (Septoria glycines; Table 13: A-1.3 0 ppm, Cyclobutrifluram 0.2 ppm) was 90%. The “Observed Activity (%)” value (Septoria glycines; Table 14: A-1.3 0 ppm, Cyclobutrifluram 0.0125 ppm) was 20%, the “Observed Activity (%)” value (Septoria glycines; Table 14: A-1.3 0 ppm, Cyclobutrifluram 0.025 ppm) was 50% and the “Observed Activity (%)” value (Septoria glycines; Table 14: A-1.3 0 ppm, Cyclobutrifluram 0.05 ppm) was 70%. For the same compound, the “Observed Activity (%)” value (Septoria glycines; Table 14: A-1.3 0 ppm, Cyclobutrifluram 0.1 ppm) was 70% and the “Observed Activity (%)” value (Septoria glycines; Table 14: A-1.3 0 ppm, Cyclobutrifluram 0.2 ppm) was 90%.

`CO/C=C(/C(=O)OC)c1ccccc1CSc1nc2ccccc2s1` [Benzothiostrobin] was tested, and the “Observed Activity (%)” value (Septoria glycines; Table 22: A-1.3 0 ppm, Benzothiostrobin 0.0125 ppm) was 50%, the “Observed Activity (%)” value (Septoria glycines; Table 22: A-1.3 0 ppm, Benzothiostrobin 0.025 ppm) was 70% and the “Observed Activity (%)” value (Septoria glycines; Table 22: A-1.3 0 ppm, Benzothiostrobin 0.05 ppm) was 90%. For the same compound, the “Observed Activity (%)” value (Septoria glycines; Table 22: A-1.3 0 ppm, Benzothiostrobin 0.1 ppm) was 90% and the “Observed Activity (%)” value (Septoria glycines; Table 22: A-1.3 0 ppm, Benzothiostrobin 0.2 ppm) was 90%.

With `COC(=O)C(O)(Cn1cncn1)c1ccc(Oc2ccc(Cl)cc2)cc1C(F)(F)F` (centres unmarked) [Compound A-1.3, Methyl 2-[4-(4-chlorophenoxy)-2-(trifluoromethyl)phenyl]-2-hydroxy-3-(1,2,4-triazol-1-yl)propanoate] the inhibition at 0.03 ppm ([1]; Mycosphaerella arachidis, A-1.3 0.03 ppm, Pyriofenone 0 ppm, read-out: Observed Activity (%)) was 50%, the inhibition at 0.03 ppm (Corynespora cassiicola; Corynespora cassiicola, A-1.3 0.03 ppm, Cyclobutrifluram 0 ppm, read-out: Observed Activity (%)) was 0% and the inhibition at 0.2 ppm (Corynespora cassiicola; Corynespora cassiicola, A-1.3 0.2 ppm, Pyrisoxazole 0 ppm, read-out: Observed Activity (%)) was 20%. It also gave an inhibition at 0.03 ppm (Septoria glycines; Septoria glycines, Table 13: A-1.3 0.03 ppm, Cyclobutrifluram 0 ppm, read-out: Observed Activity (%)) of 0%, an inhibition at 0.06 ppm (Septoria glycines; Septoria glycines, Table 14: A-1.3 0.06 ppm, Cyclobutrifluram 0 ppm, read-out: Observed Activity (%)) of 20% and an inhibition at 0.03 ppm (Septoria tritici; Zymoseptoria tritici, Table 11: A-1.3 0.03 ppm, Pyrisoxazole 0 ppm, read-out: Observed Activity (%)) of 0%. For the same compound, the inhibition at 0.06 ppm (Septoria tritici; Zymoseptoria tritici, Table 12: A-1.3 0.06 ppm, Pyrisoxazole 0 ppm, read-out: Observed Activity (%)) was 70%.

With `COc1ccnc(C(=O)N[C@@H](C)C(=O)O[C@@H](C)C(c2ccc(F)cc2)c2ccc(F)cc2)c1OC(C)=O` [Florylpicoxamid] the “Observed Activity (%)” value (Septoria glycines; Table 15: A-1.3 0 ppm, Florylpicoxamid 0.05 ppm) was 70% and the “Observed Activity (%)” value (Septoria glycines; Table 15: A-1.3 0 ppm, Florylpicoxamid 0.1 ppm) was 90%.

With `COc1c(F)c(F)c(C(=O)NCc2ncc(C(F)(F)F)cc2Cl)c(F)c1F` [Fluopimomide] the “Observed Activity (%)” value (Septoria glycines; Table 20: A-1.3 0 ppm, Fluopimomide 1.25 ppm) was 0%, the “Observed Activity (%)” value (Septoria glycines; Table 20: A-1.3 0 ppm, Fluopimomide 2.5 ppm) was 0% and the “Observed Activity (%)” value (Septoria glycines; Table 20: A-1.3 0 ppm, Fluopimomide 5 ppm) was 0%. For the same compound, the “Observed Activity (%)” value (Septoria glycines; Table 20: A-1.3 0 ppm, Fluopimomide 10 ppm) was 0% and the “Observed Activity (%)” value (Septoria glycines; Table 20: A-1.3 0 ppm, Fluopimomide 20 ppm) was 0%.

With `Cc1nc2c(F)c(F)ccc2cc1Oc1cccc(F)c1C(C)(C)O` [Ipflufenoquin] the “Observed Activity (%)” value (Septoria glycines; Table 16: A-1.3 0 ppm, Ipflufenoquin 0.6125 ppm) was 70% and the “Observed Activity (%)” value (Septoria glycines; Table 16: A-1.3 0 ppm, Ipflufenoquin 1.25 ppm) was 90%.

In the case of `CNC(=O)C(OC)c1ccccc1COc1cc(C)ccc1C` (centres unmarked) [Mandestrobin], the “Observed Activity (%)” value (Septoria glycines; Table 17: A-1.3 0 ppm, Mandestrobin 0.125 ppm) is reported as 50%, the “Observed Activity (%)” value (Septoria glycines; Table 17: A-1.3 0 ppm, Mandestrobin 0.25 ppm) is reported as 70% and the “Observed Activity (%)” value (Septoria glycines; Table 17: A-1.3 0 ppm, Mandestrobin 0.5 ppm) is reported as 90%. The “Observed Activity (%)” value (Septoria glycines; Table 18: A-1.3 0 ppm, Mandestrobin 0.25 ppm) was 70%, the “Observed Activity (%)” value (Septoria glycines; Table 18: A-1.3 0 ppm, Mandestrobin 0.5 ppm) was 70% and the “Observed Activity (%)” value (Septoria glycines; Table 18: A-1.3 0 ppm, Mandestrobin 1 ppm) was 90%.

For `Cc1cccc(-n2nnn(C)c2=O)c1COc1ccn(-c2ccc(Cl)cc2)n1` [Metyltetraprole], the “Observed Activity (%)” value (Septoria glycines; Table 19: A-1.3 0 ppm, Metyltetraprole 0.003125 ppm) was 50%, the “Observed Activity (%)” value (Septoria glycines; Table 19: A-1.3 0 ppm, Metyltetraprole 0.00625 ppm) was 70% and the “Observed Activity (%)” value (Septoria glycines; Table 19: A-1.3 0 ppm, Metyltetraprole 0.0125 ppm) was 90%. For the same compound, the “Observed Activity (%)” value (Septoria glycines; Table 23: A-1.3 0 ppm, Metyltetraprole 0.003125 ppm) was 20%, the “Observed Activity (%)” value (Septoria glycines; Table 23: A-1.3 0 ppm, Metyltetraprole 0.00625 ppm) was 70% and the “Observed Activity (%)” value (Septoria glycines; Table 23: A-1.3 0 ppm, Metyltetraprole 0.0125 ppm) was 70%. The “Observed Activity (%)” value (Septoria glycines; Table 23: A-1.3 0 ppm, Metyltetraprole 0.025 ppm) was 90%, the “Observed Activity (%)” value (Septoria glycines; Table 23: A-1.3 0 ppm, Metyltetraprole 0.05 ppm) was 90% and the “Observed Activity (%)” value (Septoria glycines; Table 23: A-1.3 0 ppm, Metyltetraprole 0.1 ppm) was 90%.

`COc1cc(C)c(C(=O)c2c(OC)ncc(Cl)c2C)c(OC)c1OC` [Pyriofenone] was tested, and the “Observed Activity (%)” value ([1]; Pyriofenone 2.5 ppm) was 0%, the “Observed Activity (%)” value ([1]; Pyriofenone 5 ppm) was 0% and the “Observed Activity (%)” value ([1]; Pyriofenone 10 ppm) was 0%. For the same compound, the “Observed Activity (%)” value ([1]; Pyriofenone 20 ppm) was 0%, the “Observed Activity (%)” value (Septoria glycines; Table 21: A-1.3 0 ppm, Pyriofenone 1.25 ppm) was 20% and the “Observed Activity (%)” value (Septoria glycines; Table 21: A-1.3 0 ppm, Pyriofenone 2.5 ppm) was 20%. The “Observed Activity (%)” value (Septoria glycines; Table 21: A-1.3 0 ppm, Pyriofenone 5 ppm) was 20%, the “Observed Activity (%)” value (Septoria glycines; Table 21: A-1.3 0 ppm, Pyriofenone 10 ppm) was 20% and the “Observed Activity (%)” value (Septoria glycines; Table 21: A-1.3 0 ppm, Pyriofenone 20 ppm) was 20%.

`CN1OC(c2ccc(Cl)cc2)CC1(C)c1cccnc1` (centres unmarked) [Pyrisoxazole] was tested, and the “Observed Activity (%)” value (Corynespora cassiicola; Pyrisoxazole 0.5 ppm) was 20%, the “Observed Activity (%)” value (Corynespora cassiicola; Pyrisoxazole 1 ppm) was 70% and the “Observed Activity (%)” value (Septoria tritici; Table 11: A-1.3 0 ppm, Pyrisoxazole 0.25 ppm) was 0%. For the same compound, the “Observed Activity (%)” value (Septoria tritici; Table 11: A-1.3 0 ppm, Pyrisoxazole 0.5 ppm) was 20%, the “Observed Activity (%)” value (Septoria tritici; Table 12: A-1.3 0 ppm, Pyrisoxazole 0.0625 ppm) was 0% and the “Observed Activity (%)” value (Septoria tritici; Table 12: A-1.3 0 ppm, Pyrisoxazole 0.125 ppm) was 0%. The “Observed Activity (%)” value (Septoria tritici; Table 12: A-1.3 0 ppm, Pyrisoxazole 0.25 ppm) was 0%, the “Observed Activity (%)” value (Septoria tritici; Table 12: A-1.3 0 ppm, Pyrisoxazole 0.5 ppm) was 70% and the “Observed Activity (%)” value (Septoria tritici; Table 12: A-1.3 0 ppm, Pyrisoxazole 1 ppm) was 90%.
